Compound | melting point
CCCCCCC(C)(C)c1cc(O)c2c(c1)OC(C)(C)[C@@H]1CCC(=O)C[C@H]21 (relative stereo) | 151 to 153 °C
CC(=O)Nc1nc(-c2ccc(O)cc2O)cs1 | 264 °C
Cc1noc(NS(=O)(=O)c2ccccc2-c2ccc(-c3ncco3)cc2CN(C)C(=O)CC(F)(F)F)c1C | 85 to 100 °C
CCNC(=O)Nc1cn2ccc(-c3c(C)noc3C)cc2n1 | 204 to 206 °C
CCCNC(=O)[C@H](CSCc1ccccc1)NC(=O)c1cc2cccc(NS(=O)(=O)c3cccs3)c2[nH]1 | 124 to 125 °C
COC(=O)c1cc(-c2nc(COc3ccc(CO)cc3OC)c(C)o2)ccc1OS(C)(=O)=O | 126 to 127 °C
COc1cccc(-c2nc3ccc(OC)cc3s2)c1 | 155 to 157 °C
CN1CCN(c2cccc3c2C[C@H](NS(C)(=O)=O)CC3)CC1 | 135 to 137 °C
CC(C)(C)OC(=O)N1CCCN(c2ncnc3ccccc23)CC1 | 55 to 59 °C
O=C1NCN(c2ccccc2)C12CCN(CC1=Cc3cc(Cl)ccc3CC1)CC2 | 191 to 192 °C
O=C(O)c1cc2c(s1)S(=O)(=O)CC2 | 227 to 230 °C
COc1ccc(N2CCOCC2)c2sc(NC(=O)N(C)C3CCOCC3)nc12 | 240 to 242 °C
COc1ccc2[nH]c3c(c2c1)CCC(C(=O)O)C3 (stereo not drawn) | 226 to 228 °C
Brc1ccc2[nH]c(-c3ccccc3)c(CCN3CCCCC3)c2c1 | 121 to 122 °C
Nc1ccc(CO)cc1[N+](=O)[O-] | 100 to 101 °C
Cc1nc(C#N)sc1-c1ccncc1 | 169 to 170 °C
CCCCOc1cc(/C=C/C(=O)NS(=O)(=O)CCC(C)C)n(Cc2ccc(C(F)(F)F)cc2Cl)n1 | 89.5 to 90.5 °C
CC(C)N(Cc1cnc(-c2ncn3c2CN(C)C(=O)c2cc(F)ccc2-3)o1)C(C)C | 176 to 178 °C
CC(=O)SCC(C)C(=O)N(CC(=O)O)C1Cc2ccccc2C1 (stereo not drawn) | 81 to 83 °C
CC(=O)CC(=O)c1ccc(OCCCN2CCCCC2)cc1 | 43 to 45.5 °C
CC(=O)Nc1ccc(S(=O)(=O)N2CCN(c3c(F)cc4c(=O)c(C(=O)O)cn(CC(C)C)c4c3F)CC2)cc1 | 181 to 183 °C
CC(C)(C)NCC(O)COc1ccc2oc(-c3ccc(O)c(O)c3)cc(=O)c2c1 (stereo not drawn) | 193 °C

Compound | melting point
Cc1cc(C(C)(C)C)c(O[Si](C)(C)Cl)c(C(C)(C)C)c1 | 119 to 121 °C
CC1(C)CC(c2cccc(C(F)(F)F)c2)c2ccc(O)cc2O1 (stereo not drawn) | 63 to 68 °C
CN(C)c1ccc(NC(=O)N(Cc2ccccc2)C[C@H]2CCC[C@H](CN(Cc3ccccc3)C(=O)Nc3ccc(N(C)C)cc3)C2)cc1 (relative stereo) | 129 to 133 °C
BrCc1cc2ccccc2s1 | 107 to 109 °C
CCOC(=O)C1=C(C)NC(C)=C(C(=O)OCC)C1c1cc(Br)ccc1F | 118 to 119 °C
N#Cc1ccc(-c2ccc(OCC(CN3C(=O)c4ccccc4C3=O)N(O)C=O)cc2)cc1 (stereo not drawn) | 199 to 202 °C
COC1CCCn2c1nc(C)c(CCN1CCC(c3noc4cc(F)ccc34)CC1)c2=O (stereo not drawn) | 131 °C
CCOc1ccc(S(=O)(=O)N2CCNCC2)cc1-c1nc2c(OC)cccc2c(=O)[nH]1 | 163 to 165 °C
CCCCCN1C(=O)C2CC(c3ccc(N)cc3)(C2)C1=O | 92 to 94 °C
CCC(=O)Nc1c(Cl)cnn1-c1ccc(Cl)c(Cl)c1Cl | 122 °C
O=C(O)[C@@H]1C[C@H]2C[C@@H](CCc3cc(O)no3)CC[C@H]2CN1 (racemic) | 256 °C
COc1c(Br)c(O)c(C=O)c(OC)c1Br | 103 to 104 °C
C1=C(c2ccncc2)CCC2(C1)OCCO2 | 67 to 70 °C
COC(=O)N=C1SCCN1Cc1ccc(Cl)nc1 | 128 to 130 °C
CCC(=O)Nc1nnc2c3c(c(N4CCCCC4)nn12)CCCC3 | 173 to 174 °C
CS(=O)(=O)N(Cc1ccc(F)cc1)c1cccnc1 | 93 to 95 °C
COc1cc(NC(C)=O)c(Cl)cc1C(=O)N[C@H]1CCN(CCCOc2ccc(F)cc2)C[C@H]1OC (relative stereo) | 176 °C
CCCCCc1cc(N)cc(O)c1 | 88 to 91 °C
CNC(=O)CC1CN=C(c2cc3cc(Oc4ccc(S(C)(=O)=O)cn4)cc(OC(C)C)c3[nH]2)S1 (stereo not drawn) | 190 to 192 °C
CCCCCc1ccc(-c2ccc(C3CC(CCCCC)C(=O)O3)cc2)cc1 (stereo not drawn) | 86.2 to 88.4 °C
N#Cc1cccc(OC(=O)C(=O)Oc2cccc(C#N)c2)c1 | 187 to 190 °C
CCOC(=O)c1nc2n(n1)-c1ccc(Cl)cc1C(c1ccccc1)=NC2 | 137 to 138 °C

Compound | melting point
CCOC(=O)C1=C(CCl)NC(C)=C(C(=O)OC)C1c1cccc([N+](=O)[O-])c1 (stereo not drawn) | 119 to 120 °C
CCC1(Cl)Cc2cc(OCC(=O)O)c(Cl)c(Cl)c2C1=O (stereo not drawn) | 185 to 187 °C
O=Cc1cc(F)cc(Br)c1F | 36 to 38 °C
COc1cccc2c1CC(C#N)CC2 (stereo not drawn) | 66 to 68 °C
COc1cccc(OCCCN2CCC(C(O)(c3ccc(F)cc3)c3ccc(F)cc3)CC2)c1 | 107 to 108 °C
Cc1cc(Cl)c2[nH]ncc2n1 | 218 °C
CN(C)N=C1CCC2C3CCc4cc(O[Si](C)(C)C(C)(C)C)ccc4C3CCC12C (stereo not drawn) | 100 to 103 °C
CC(C)(C)c1cc(-c2ccc(F)cc2F)cc(C(=O)Nc2ccc(S(=O)(=O)C(F)(F)F)cc2Cl)c1O | 114 to 115 °C
COc1ccc(C(=O)c2cccc(OCc3nc(-c4ccccc4)oc3C)c2)c(OCCOC(C)=O)c1 | 90 to 91 °C
Cc1ccn2c(=Nc3ccncc3)snc2c1 | 144 to 145 °C
CCC(C)C(NC(=O)OCc1ccccc1)C(=O)NC(Cc1c[nH]c2ccccc12)C(=O)OC (stereo not drawn) | 152 to 155 °C
O=C(NC(Cc1c[nH]c2ccccc12)C(=O)O)C(S)Cc1ccccc1 (stereo not drawn) | 117 to 119 °C
CCCCCCCCCCCCCCNC(=S)NC(=O)c1ccc(C#N)cc1 | 78 to 80 °C
COc1ccc2[nH]c(S(=O)Cc3cc(N(C)C)ncn3)nc2c1 (stereo not drawn) | 104 to 106 °C
CC(=O)OC1CSC(Oc2ccnc(-c3ccc(F)cc3C)c2)C(OC(C)=O)C1OC(C)=O (stereo not drawn) | 137 °C
Cc1cc(C(=O)O)sn1 | 203 to 204 °C
CNC(=O)c1cn(-c2cc3c(=O)n(NS(C)(=O)=O)c(=O)[nH]c3cc2C(F)(F)F)cn1 | 292 to 295 °C
O=C(CCCCCCNC(=O)c1ccc(C(C(=O)Nc2cccc3cccnc23)C(=O)Nc2cccc3cccnc23)cc1)NO | 212 to 215 °C
CCC(=O)NC[C@@H]1C[C@H]1c1cccc2nn(C)cc12 (relative stereo) | 79 to 80 °C
CCN(C(=O)NC)c1ccc(Cl)nc1 | 135 to 136 °C

Further lines, results first:

melting point | Compound
217 to 219 °C | CC(=O)Nc1c(C(=O)c2ccoc2)[nH]c2cc(Cl)ccc12
134 to 136 °C | COCc1cn(Cc2ccccc2)c(=O)[nH]c1=O
230 to 232 °C | Cc1[nH]cnc1CC1CCc2c(c3ccccc3n2C)C1=O (single isomer, unassigned; (+))
168 °C | CN(C(=O)CN(C(=O)CN1C(=O)c2ccccc2C1=O)c1ccccc1Cl)c1ccccc1
123 °C | CCOC(=O)c1ccc2[nH]c(C(=O)OCc3ccccc3)cc2c1
71 to 72 °C | CCOC(=O)c1cn(Cc2ccccc2)nc1OCc1ccccc1
181 to 183 °C | O=C(NC1=NN(c2ccc(Cl)c(Cl)c2)CC1)C(F)(F)F
184 to 186 °C | O=c1cc2c(nn1-c1ccccc1)-c1cc(Cl)ccc1CC2
138 to 140 °C | CC(C)(C)c1ccc(Oc2ccc([N+](=O)[O-])cc2C(=O)Nc2ccccc2)cc1
135 to 136 °C | Cc1sc(-c2ccccc2)nc1COc1cc(COc2ncccc2C#N)on1
238 to 240 °C | Cc1nc(-c2ccc(NC(=O)OCc3ccccc3)cc2)c[nH]c1=O
269 to 271 °C | CC(=O)Nc1c(C(=O)c2cnccn2)[nH]c2cc(Cl)ccc12
158 to 159 °C | CCC(=C(c1ccccc1)c1ccc(C=Cc2noc(C)n2)cc1)c1ccccc1
193 °C | CN(c1ccccc1)c1ncnc2c(I)cnn12
201 to 202 °C | CC(C)c1ccc(-c2c(Cl)c(CN3C(=O)CCC3=O)nc3sc4c(c23)CCN(Cc2ccccc2)C4)cc1
146 to 147 °C | Cc1oc(-c2ccccc2)nc1C(O)COc1ccc(CCCC2OC(=O)NC2=O)cc1 (stereo not drawn)
68 to 70 °C | CN1C(=O)C(c2ccc(OC(F)F)cc2)(c2cccc(C3CC(=O)C3)c2)N=C1N (stereo not drawn)

melting point | Compound
41 to 43 °C | O=C(Cl)CC(c1ccccc1)c1ccccc1
128 to 132 °C | O=C(O)c1ccc(S(=O)(=O)c2ccccc2)cc1
261 to 262 °C | Cn1c2ccc(Cl)cc2c2c(CC(=O)N3CCCC3)nn(-c3ccccc3)c(=O)c21
197 °C | C#Cc1cc2c(Nc3ccc(OCc4cccc(F)c4)c(Cl)c3)ncnc2s1
155 to 157 °C | CC(C)(C)c1ccc(N2CC(COC(=O)c3ccccc3C(=O)O)CC2=O)cc1 (stereo not drawn)
226 to 228 °C | CC1Cc2cc(S(N)(=O)=O)cc(C(=O)NC3CCN(Cc4ccccc4)CC3)c2O1 (stereo not drawn)
108 to 109 °C | CC1=C(c2ccccc2)C(=O)N(C(C)(C)c2ccccc2)CC1
226 to 230 °C | Cc1ccccc1Cc1nc2cc(Cl)c(S(N)(=O)=O)cc2[nH]1
244 to 246 °C | C[C@@H](Nc1ncnc2[nH]c(-c3ccc(CN4CCN(C(=O)OC(C)(C)C)CC4)cc3)cc12)c1ccccc1
168 to 169 °C | O=c1oc(-c2ccc(OCc3ccc(Cl)c(Cl)c3)cc2)cc(O)c1SCCc1ccccc1
160 to 162 °C | O=S(=O)(Cc1ccccc1)c1c(Cl)nc(Cl)nc1Cl
118 to 120 °C | COC(=O)Cc1cc2ccc(OC)cc2n(Cc2ccccc2)c1=O
128 to 129 °C | CC(C)(NC(=O)CCc1nccn1Cc1ccccc1)c1ccc(Cl)cc1
127 to 129 °C | O=C(O)C(O)N1C(=O)CCN1c1ccccc1 (stereo not drawn)
124 to 126 °C | CC(C(=O)N(C)C)n1c(-c2ccc(Cl)cc2)nc2cccnc21 (stereo not drawn)
113 to 115 °C | CCc1nc(/C=C/c2cn(-c3ccccc3)nc2OCc2ccc(OCc3nc(-c4cccc(NS(C)(=O)=O)c4)oc3C)c(OC)c2)cs1
166 to 168 °C | Clc1nc2ccccc2n2cnc(-c3nc(C4CC4)no3)c12
